US20230181678A1, “NOVEL ANTIBACTERIAL PEPTIDE OR PEPTIDE ANALOG AND USE THEREOF” (CAMP THERAPEUTICS INC., priority 2020, published 2023)
* marks the point of attachment. Octanoyl = CCCCCCCC(=O)*

Columns and labels:
[1] = system: Acinetobacter baumannii ATCC 17978; test: MIC assay, sensitizing effect of peptide on antibiotics; assay type: cell-based
A. baumannii 801 [2] = test: Immunosuppressed mouse pneumonia infection survival model; assay type: in vivo
Description: (§1) To induce neutropenia in 6-week-old female ICR (CD-1) mice weighing 23 g to 27 g (Orient Bio, Seongnam, Korea), the mice were treated (subcutaneously injected) with 150 mg/kg and 100 mg/kg of cyclophosphamide (CP), respectively, 4 days and 1 day before pneumonia infection. For a mouse model for survival analysis, the mice were infected intranasally with 1×10^8 CFU A. baumannii 801; and for a mouse model for colony number counting, the mice were infected intranasally with 1×10^6 CFU A. baumannii 801.
The sensitizing peptide CMP1401 of the present disclosure was administered by intraperitoneal injection 4 times daily for 2 days (25 mg/kg QID). Six mice were used per each group.

[3] = system: outer membrane of E. coli NDM-1; test: Enzyme assay, outer membrane leakage (β-lactamase release, CENTA); assay type: cell-based; settings: peptide 0.63 or 1.30 uM, 37° C., 1 h; 200 μM CENTA
Description: (§2) It was observed, through an enzyme assay, whether the sensitizing peptide destroyed the outer and inner membranes of Gram-negative bacteria. In the presence of the sensitizing peptide, it was observed whether in a case where 1.5 mM ONPG was used together therewith, β-galactosidase was released from E. coli ATCC 25922 for the inner membrane, and whether in a case where 200 μM CENTA was used together therewith, β-lactamase was released from E. coli NDM-1 for the outer membrane.
Specifically, to determine leakage of the outer membrane, activity of the β-lactamase released from the outer membrane was evaluated. New Delhi metallo-β-lactamase-1 (NDm-1)-producing E. coli cells were washed three times with DPBS and suspended in the same buffer. The cells were diluted to an OD600 of 0.2 and treated with the peptide at a concentration of 0.63 or 1.30 uM at 37° C. for 1 h. After centrifugation, the supernatant was incubated with 200 μM CENTATM β-lactamase substrate at 37° C. for 1 hour. An optical density was obtained by measuring absorbance of a product of enzyme reaction at 405 nm using a microplate reader (Molecular Devices Co., Menlo Park, Calif.).
The results are illustrated in FIGS. 12A and 12B. The y-axis is absorbance measured at 405 nm, and higher absorbance is observed as a higher amount of β-lactamase is released due to destruction of the membrane.

K.p. ATCC 700603 = test: MIC assay, sensitizing effect of peptide on rifampicin; assay type: cell-based, Klebsiella pneumoniae; settings: FIG. 9C, peptide 4 ug/ml
Description: (§3) All MIC assay experiments were performed using the Clinical and Laboratory Standards Institute (CLSI) guidelines (Clinical & Laboratory Standards Institute: CLSI Guidelines, 2017). Bacterial cells cultured overnight were diluted to 0.05 McFarland standard using McFarland (KIT […] PLUS INSTRUMENT, Biomerieux) in Muller Hinton II Broth (cation-adjusted) (Difco). The cells were inoculated at 1.5×10^5 CFU per 200 μL solution of each well in a 96-well plate. The peptide and the antibiotic were prepared using 2-fold serially diluted concentrations. […] Incubation was performed at 37° C. for 18 hours, and then absorbance was measured at 600 nm using an EPOCH2 microplate reader (BioTek, Winooski, USA) to calculate a MIC value. The MIC value was defined as a concentration of the antibiotic or peptide at which bacterial growth was inhibited to a level of lower than 10% growth of the positive control. Fold reduction was calculated using the following expression.
(§4) ATCC 25922, A.b. ATCC 17978, K.p. ATCC 700603, and P.a. ATCC 27853, or CRE (E.c. NDM-1, K.p. NDM-1, or K.p. KPC) (FIGS. 9 and 10).

A. baumannii 801 [4] = test: Neutropenic mouse pneumonia model, number of colonies in lungs; assay type: in vivo
Description: as §1
In addition to the survival rate in the neutropenic mouse pneumoniae mouse model, the number of colonies of A. baumannii 801 was measured in the mouse lungs. The mice were euthanized and lungs were harvested in sterile saline. The lungs were homogenized and serially diluted in sterile saline. The homogenized lungs were applied to tryptic soy agar plates, incubated at 37° C. overnight, and the number of colonies was counted. […] Six mice were used per each group.

Kp NDM-1 = test: MIC assay, sensitizing effect of peptide on rifampicin (CRE); assay type: cell-based, Klebsiella pneumoniae; settings: FIG. 9F; Kp NDM-1 (CRE); peptide 4 ug/ml
Description: as §3, §4

[5] = system: E.c. ATCC 25922, A.b. ATCC 17978, K.p. ATCC 700603, P.a. ATCC 27853, or CRE (E.c. NDM-1, K.p. NDM-1, or K.p. KPC); test: MIC assay, comparison with L9P on rifampicin or colistin; assay type: cell-based; settings: FIGS. 9 and 10
Description: as §3, §4

P.a. ATCC 27853 = test: MIC assay, sensitizing effect of peptide on rifampicin or colistin; assay type: cell-based, Pseudomonas aeruginosa; settings: peptide 4 ug/ml
Description: as §3, §4

A. baumannii 801 [6] = test: Immunosuppressed rat pneumonia infection model; assay type: in vivo; settings: 5 mg/kg of rifampicin and 3 mg/kg or 6 mg/kg of CMP1401 (intravenous infusion 1 hour) vs 32 mg/kg colistin
Description: The results are illustrated in FIG. 16.
32 mg/kg of colistin is known as a clinical dose used for treatment of A. baumannii 801. Therefore, an effect observed in a case where 32 mg/kg of colistin was used alone may be a criterion for comparing effectiveness of co-administration of CMP1401 and an antibacterial agent in this example.

Ec NDM-1 = test: MIC assay, sensitizing effect of peptide on rifampicin (CRE); assay type: cell-based, E. coli; settings: FIG. 9E; Ec NDM-1 (CRE); peptide 4 ug/ml
Description: as §3, §4

[7] = system: inner membrane of E. coli ATCC 25922; test: Enzyme assay, inner membrane leakage (β-galactosidase release, ONPG); assay type: cell-based; settings: 1.5 mM ONPG
Description: as §2
To determine leakage of the inner membrane, release of the cytoplasmic enzyme β-galactosidase was evaluated. The bacteria were diluted to OD600=1 and 1.5 mM ONPG (O-nitrophenyl-β-D-galactopyranoside) was added. Absorbance of a product of enzyme reaction was measured at 420 nm. The other procedures were carried out in the same manner as in the experiment for outer membrane destruction.

[8] = 2.5 mg/kg rifampicin + 25 mg/kg CMP1401 vs 2.5 mg/kg rifampicin alone

**Q.** With “OctA-KKALKLAKKPLKLLK-NH2 (Octanoyl-KKALKLAKKPLKLLK-NH2) [CMP1401]” as the substance, how does the “Decreased MIC value of rifampicin at peptide concentration of 4 ug/ml” value (from here on “Decreased MIC value of rifampicin”) ([1]; FIG. 9B, A.b. ATCC 17978, peptide 4 ug/ml) read?
**A.** 0.031 µg/mL

**Q.** And the “sensitizing effect for fusidic acid” value ([1]; peptide 0.31 μM, vs fusidic acid alone)?
**A.** 250 times

**Q.** What about the “sensitizing effect for novobiocin” value ([1]; peptide 0.31 μM, vs novobiocin alone) of the same substance?
**A.** 16 times

**Q.** And the “sensitizing effect for rifampicin” value ([1]; peptide 0.31 μM, vs rifampicin alone)?
**A.** 64 times

**Q.** And the survival rate (A. baumannii 801 [2]; 2.5 mg/kg of rifampicin and 25 mg/kg of CMP1401 (intraperitoneal, QID) co-administered)?
**A.** 50%

**Q.** And the “survival rate higher than rifampicin alone” value (A. baumannii 801 [2]; [8])?
**A.** about 33.3%

**Q.** And the “survival / antibacterial activity, peptide administered alone” value (A. baumannii 801 [2]; CMP1401 administered alone)?
**A.** all mice died

**Q.** And the “destruction of outer membrane (β-lactamase release)” value [3]?
**A.** did not destroy these membranes

**Q.** What about the “Decreased MIC value of rifampicin” value (K.p. ATCC 700603) of the same substance?
**A.** 0.0078 µg/mL

**Q.** And the “number of colonies fewer than rifampicin alone group” value (A. baumannii 801 [4]; [8])?
**A.** about 12 times

**Q.** And the “number of colonies fewer than untreated group (control)” value (A. baumannii 801 [4]; rifampicin and CMP1401 co-administered vs untreated)?
**A.** about 60 times

**Q.** What about the “number of colonies fewer than rifampicin and SPR741 group” value (A. baumannii 801 [4]; rifampicin and CMP1401 vs rifampicin and SPR741) of the same substance?
**A.** about 30 times

**Q.** And the “Decreased MIC value of rifampicin” value (Kp NDM-1)?
**A.** 0.0078 µg/mL

**Q.** What about the “sensitizing effect on rifampicin or colistin compared with L9P” value [5] of the same substance?
**A.** very good sensitizing effect

**Q.** And the “Decreased MIC value of rifampicin” value (P.a. ATCC 27853; FIG. 9D)?
**A.** 0.25 µg/mL

**Q.** And the “Decreased MIC value of colisitin at peptide concentration of 4 ug/ml” value (P.a. ATCC 27853; FIG. 10B)?
**A.** 0.016 µg/mL

**Q.** What about the “effect of co-administration with rifampicin compared with colistin” value (A. baumannii 801 [6]) of the same substance?
**A.** comparable to that observed in a case where 32 mg/kg of colistin was administered

**Q.** What about the “Decreased MIC value of rifampicin” value (Ec NDM-1) of the same substance?
**A.** 0.0040 µg/mL

**Q.** What about the “destruction of inner membrane (β-galactosidase release)” value [7] of the same substance?
**A.** did not destroy these membranes
